We go through 6 molecules from patent publication US20060160905A1, “Compositions and methods for inhibiting pain” (priority 2005, published 2006).

The assay has as its system acetic acid-induced visceral pain. Briefly: acetic acid-induced visceral pain mouse model (writhing/stretch count). The assay is classed as in vivo, mice (male Harlan ICR). As to conditions: for number of stretches (writhes) per 30 minutes: 0.75% acetic acid IP half an hour later, control mice typically stretch 65-70 times/30 minutes; for effect on inhibiting visceral pain (stretches vs. control mice), in words: doses from 0.37 mg/kg to 30.0 mg/kg SC. On the procedure: The acetic acid-induced visceral pain mouse model test is, of course, well known to those skilled in the art and is described in the seminal paper by Collier et al [Collier, H. O. J., L. C. Dinneen, C. A. Johnson and C. Schneider 1968. The abdominal constriction response and its suppression by analgesic drugs in the mouse.
The drugs are identified below as Monoamine #1-6. Five groups of five mice (male Harlan ICR, weight 35-50 g) were used to test each of the drugs. Control animals were tested as part of each experiment as well. The mice in each group were weighed and identified with a tail marking and were given a single dose of one of the drugs at 1 ml/100 g SC. The first group served as controls and was given only saline; the other five groups were given a drug at five doses ranging from 0.37 mg/kg up to 30.0 mg/kg. After the drug was administered, the mice were allowed to acclimate for one-half hour and were then given an IP injection of 0.75% Glacial acetic acid at a volume of 1 ml/100 g. Once the acid was injected, the mice were put into individual clear containers for observation. The mice were then watched continuously for one-half hour and the number of “stretches” or writhes were counted. The animal was considered to be stretching when its front legs stepped forward and at least one hind leg was extended out behind them. At the end of the thirty-minute observational period the mice were sacrificed with CO2. The same procedure was followed for all of the different compounds examined.
On the technique in general: In writhing tests, fewer writhes than in controls are read as antinociception.

As to `CCNCCCc1ccccc1O.Cl` [Monoamine #2], the “effect on inhibiting visceral pain (stretches vs. control mice), in words” value is recorded as “only a minimal effect on inhibiting visceral pain”. For the same molecule, the “number of stretches (writhes) per 30 minutes” value (“number … per 30 minutes” below) (30 mg/kg SC single dose) turned out to be 47.7±22.4 stretches/30 minutes. The “effect on inhibiting visceral pain (stretches vs. control mice), in words” value (listed as #2) is “little/no effect”.

Turning to `CCNCCCCC1CCCCC1` [Monoamine #5, N-(4-cyclohexylbutyl)-N-ethylamine], the “effect on inhibiting visceral pain (stretches vs. control mice), in words” value is reported as “significantly fewer stretches than the control mice”. Moreover, where the note is “listed as #5”, the “effect on inhibiting visceral pain (stretches vs. control mice), in words” value is on record as “effective at all of the doses tested”.

Take `CCNCCCCc1ccccc1O` [Monoamine #3]: the “effect on inhibiting visceral pain (stretches vs. control mice), in words” value is “significantly fewer stretches than the control mice”. Also, the “effect on inhibiting visceral pain (stretches vs. control mice), in words” value (listed as #3) is “effective at all of the doses tested”.

With `CCN(CCCc1ccccc1O)Cc1ccccc1.CS(=O)(=O)O` [Monoamine #4], the “effect on inhibiting visceral pain (stretches vs. control mice), in words” value is recorded as “not effective against visceral pain”. For the same molecule, the “effect on inhibiting visceral pain (stretches vs. control mice), in words” value (listed as #4) is “little/no effect”.

Take `CCCCCCNC1CCCCC1` [Monoamine #6, N-hexylcyclohexanamine]: the “effect on inhibiting visceral pain (stretches vs. control mice), in words” value is “not effective against visceral pain”. In addition, where the note is “listed as #6”, the “effect on inhibiting visceral pain (stretches vs. control mice), in words” value is reported as “little/no effect”.

On to `CCNCCc1ccccc1O.Cl` [Monoamine #1, 2-[2-(Ethylamino)ethyl]phenol Hydrochloride], for which the “number … per 30 minutes” value (10 mg/kg SC single dose) came out at 25.9±14.8 stretches/30 minutes and the “number … per 30 minutes” value (30 mg/kg SC single dose) stood at 13.1±11.7 stretches/30 minutes. Besides, the “effect on inhibiting visceral pain (stretches vs. control mice), in words” value was “statistical significance at all doses tested” (Hydrochloride) and “effective at all of the doses tested” (listed as #1, Hydrochloride).
